Reference: PubChem BioAssay AID1963985 (Molecular Pharmacology Branch, DTP, NCI, 2024)

Test system: 252836-082-R-J2-PDC tumor spheroids, viability
Experiment: Anticancer human tumor 252836-082-R-J2-PDC patient-derived head and neck squamous cell carcinoma cell line growth inhibition [PI3K]
Conditions: spheroids with HUVEC and MSC; for IC50: curve of first compound; for viability, T/C: stronger effect = lower value
Summary of the method: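 Agents were dosed from a top concentration near clinical Cmax (otherwise 10 microM) in half-log decrements, alone or combined with PI3K inhibitors. The spheroids contain tumor cells plus endothelial (HUVEC) and MSC stroma; viability is measured.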
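Note: spheroids exposed to agents for seven days before readout.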
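Throughout, for viability, T/C: percent of vehicle DMSO control viability so 100% = untreated growth.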

IC50 (second compound 0.00316 µM): > 100 nM
IC50 (second compound 0.01 µM): > 100 nM
IC50 (second compound 0.0316 µM): > 100 nM
IC50 (second compound 0.1 µM): < 0.316 nM
IC50 (second compound 0.316 µM): < 0.316 nM
IC50 (second compound 1 µM): < 0.316 nM
SMILES: CC(=O)c1c(C)c2cnc(Nc3ccc(N4CCNCC4)cn3)nc2n(C2CCCC2)c1=O + COc1c(OCCCN2CCOCC2)ccc2c3n(c(=NC(=O)c4cnc(N)nc4)nc12)CCN3
viability, T/C (second compound 0.00316 µM, first compound 0.000316 µM): 95%
viability, T/C (second compound 0.00316 µM, first compound 0.001 µM): 93.1%
viability, T/C (second compound 0.00316 µM, first compound 0.00316 µM): 85.6%
viability, T/C (second compound 0.00316 µM, first compound 0.01 µM): 96.3%
viability, T/C (second compound 0.00316 µM, first compound 0.0316 µM): 87.8%
viability, T/C (second compound 0.00316 µM, first compound 0.1 µM): 99%
viability, T/C (second compound 0.01 µM, first compound 0.000316 µM): 84.7%
viability, T/C (second compound 0.01 µM, first compound 0.001 µM): 81.4%
viability, T/C (second compound 0.01 µM, first compound 0.00316 µM): 78.5%
viability, T/C (second compound 0.01 µM, first compound 0.01 µM): 84.3%
viability, T/C (second compound 0.01 µM, first compound 0.0316 µM): 81.1%
viability, T/C (second compound 0.01 µM, first compound 0.1 µM): 83.7%
viability, T/C (second compound 0.0316 µM, first compound 0.000316 µM): 69.5%
viability, T/C (second compound 0.0316 µM, first compound 0.001 µM): 60.9%
viability, T/C (second compound 0.0316 µM, first compound 0.00316 µM): 66.9%
viability, T/C (second compound 0.0316 µM, first compound 0.01 µM): 56.5%
viability, T/C (second compound 0.0316 µM, first compound 0.0316 µM): 64%
viability, T/C (second compound 0.0316 µM, first compound 0.1 µM): 62.6%
viability, T/C (second compound 0.1 µM, first compound 0.000316 µM): 37.1%
viability, T/C (second compound 0.1 µM, first compound 0.001 µM): 41.2%
viability, T/C (second compound 0.1 µM, first compound 0.00316 µM): 37.8%
viability, T/C (second compound 0.1 µM, first compound 0.01 µM): 45.5%
viability, T/C (second compound 0.1 µM, first compound 0.0316 µM): 41.7%
viability, T/C (second compound 0.1 µM, first compound 0.1 µM): 37.5%
viability, T/C (second compound 0.316 µM, first compound 0.000316 µM): 18.2%
viability, T/C (second compound 0.316 µM, first compound 0.001 µM): 21.1%
viability, T/C (second compound 0.316 µM, first compound 0.00316 µM): 20.6%
viability, T/C (second compound 0.316 µM, first compound 0.01 µM): 18.7%
viability, T/C (second compound 0.316 µM, first compound 0.0316 µM): 21.8%
viability, T/C (second compound 0.316 µM, first compound 0.1 µM): 16.6%
viability, T/C (second compound 1 µM, first compound 0.000316 µM): 4.69%
viability, T/C (second compound 1 µM, first compound 0.001 µM): 5.36%
viability, T/C (second compound 1 µM, first compound 0.00316 µM): 5.54%
viability, T/C (second compound 1 µM, first compound 0.01 µM): 5.58%
viability, T/C (second compound 1 µM, first compound 0.0316 µM): 6.27%
viability, T/C (second compound 1 µM, first compound 0.1 µM): 4.95%
